Assay results from US6071710A, “Antikinin compounds and uses thereof” (MUSC Foundation for Research Development, priority 1997, dated 2000).
Entries after “also recorded” stand apart in the source; their conditions may differ. Each block holds one compound with its values, some of them ahead of it. Where no end group is shown, it is not given here.

How the values were obtained:
[1] = system: spontaneously hypertensive rats; test: Mean systemic arterial blood pressure after brain injection of BK fragments; assay type: in vivo, rat; details: hypertensive anesthetized rats, preliminary for BK1-7, BK2-7
Description: Experiments were performed on male spontaneously hypertensive rats weighing 250-350 g. Anesthesia and surgical procedures are described (15-17). Following the surgical procedures, animals were allowed to stabilize for 30 minutes. Injections were then made unilaterally into the rostral ventral lateral medulla oblongata. In any given experiment, not more than four doses of the BK fragments were given. Successive injections were alternated between sides after an intervening period of 20 minutes. Mean arterial pressure was measured from a femoral arterial line with a transducer (Statham Laboratories, Inc. Hato Rey, Puerto Rico) and recorded using a polygraph (Grass Instrument Co., Quincy, Mass.). Values shown are the mean changes ± sem.

kinin B2 receptors = biological target: T1, kinin B2 receptors (Rattus norvegicus, UniProt P25023); test: [3H]bradykinin binding assay in VSMC; details: rat aortic smooth muscle cells
T1 construct: endogenous in cells; host or cells: primary rat aortic vascular smooth muscle cells (male Sprague-Dawley), passage 2-4
T1 sequence (P25023 1-396): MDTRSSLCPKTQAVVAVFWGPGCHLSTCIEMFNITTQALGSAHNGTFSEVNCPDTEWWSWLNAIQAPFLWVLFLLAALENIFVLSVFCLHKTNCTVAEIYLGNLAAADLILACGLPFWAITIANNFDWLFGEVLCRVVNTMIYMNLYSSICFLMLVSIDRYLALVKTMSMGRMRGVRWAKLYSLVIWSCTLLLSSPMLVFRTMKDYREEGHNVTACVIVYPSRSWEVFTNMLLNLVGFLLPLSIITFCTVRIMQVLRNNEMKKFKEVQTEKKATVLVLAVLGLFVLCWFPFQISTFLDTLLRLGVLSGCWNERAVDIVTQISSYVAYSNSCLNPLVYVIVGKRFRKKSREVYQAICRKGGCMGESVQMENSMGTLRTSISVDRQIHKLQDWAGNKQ
Description: VSMC grown in 6-well plates were washed with and allowed to equilibrate with 1 ml of binding buffer (25 mM TES, 1 mM phenanthroline, 15 μM captopril, 0.1% BSA, pH 7.0). Saturation binding experiments were performed by incubating cells with [^-3 H] bradykinin (60,000 cpm/well) and varying the concentration of unlabeled bradykinin (5×10^-11 -1×10^-6 M) in binding buffer for 2 h at 4° C. Cells were washed 3 times with 2 ml of ice-cold binding buffer and solubilized for 10 min in 1% SDS, 0.1 M NaOH, 0.1 M Na2 CO3 solution and counted for radioactivity. Data were analyzed using the LIGAND program to determine the affinity constants and the receptor number.

[2] = system: endotoxin (LPS)-treated anesthetized rats; test: Endotoxin (LPS) shock in anesthetized rats; assay type: in vivo, rat; details: 1 μg/kg IV followed by 143 ng/kg/hr, one hour prior to LPS (12 mg/kg IV); vs vehicle/LPS
Description: Male Sprague-Dawley rats (220-480 g) were anesthetized with inactin (120 mg/kg, IP). The trachea was cannulated and the animal was allowed to breath 100% O2. Polyvinyl cannulas (Norton Plastics, Akron, Ohio) were inserted into the jugular vein and the femoral artery for the purposes of infusion of saline and agents and for monitoring of blood pressure, respectively, as described for FIGS. 2 and 3. Heart rate was monitored by tachograph and body temperature was maintained at 37° C. After a 2 hour period of equilibration with saline infusion (0.25 ml/hr), peptides (1 μg/kg followed by 143 ng/kg/hr) or saline were administered, followed one hour later by LPS (12 mg/kg). Time of death was taken as time after administration of LPS when there was no longer a detectable ECG. Values shown are the mean ± sem from the indicated number of studies and were compared using either t-test (FIG. 12A) or ANOVA with Fisher's post-hoc t-test (FIG. 12B).

[3] = cited from earlier work
[4] = published work (11); cited from earlier work

Compound: BK2-7: bradykinin fragment PPGFSP (Bradykinin; UniProt P01042 382-387, looked up, fragment)
- systemic mean arterial pressure (MAP) response [1]: affect systemic blood pressure

- displacement of specific binding of bradykinin to kinin B2 receptors (kinin B2 receptors): not displaced
Compound: des-arg9-bradykinin (RPPGFSPF; Bradykinin; UniProt P01042 381-388, looked up, fragment)

Compound: RPPGFSPFR [bradykinin]
- survival time [2]: did not prolong life; also recorded: does not provide protection
- plasma half-life [3]: ~ 15 secs.

Compound: RPPGF [RPPGF, Arg-Pro-Pro-Gly-Phe]
- stability in human plasma [4]: highly stable in human plasma

- displacement of specific binding of bradykinin to kinin B2 receptors (kinin B2 receptors): specifically displaced
Compound: NC(N)=NCCC[C@@H](N)C(=O)N[C@@H](CCCN=C(N)N)C(=O)N1CCC[C@H]1C(=O)N1C[C@H](O)C[C@H]1C(=O)NCC(=O)N[C@@H](Cc1cccs1)C(=O)N[C@@H](CO)C(=O)N1Cc2ccccc2C[C@@H]1C(=O)N1[C@H](C(=O)N[C@@H](CCCN=C(N)N)C(=O)O)C[C@@H]2CCCC[C@@H]21 [HOE140]
